# Laboratory results reported in US20040097534A1, “Composition for the protection and regeneration of nerve cells containing berberine derivatives” (EUGENBIO INC., priority 2001, published 2004).
# “Also recorded” adds a separate entry of the source. Like-named read-outs stand apart in the source and are kept apart here.
# Tests used:
# [1] = system: HiB5 cells; conditions: for O.D. %: control = 100
# Procedure: Since HiB5 cells derived from white rat embryonic hippocampus were prepared by retroviral infection of temperature sensitive SV40 large T antigen, they divided at […], but the cell division stopped at 39° C. (body temperature of rat). […] Cell culture medium was prepared by adding a mixture of 10% FBS (fetal bovine serum), penicillin/streptomycin, glutamine and sodium pyruvate (0.11 g/L) to DMEM. On differentiating at 39° C., another cell culture medium was prepared by adding pyruvate to a serum-free medium (N2, containing DMEM/F12, insulin, transferrin, Putreseine and BSA; Botten Stein & Sato., 1979). PC12 cells and SH-SY5Y cells were cultured in DMEM supplemented with 10% FBS. In order to differentiate the cells, NGF or retinoic acid was added to a serum-free medium.
# Cell injuries under condition of serum deprivation-induced stress and oxidative stress were measured by MTT assay. For MTT assay, Cells were seeded into N2 medium in an amount of 7.5×10^3 cells, and then a neurotoxin or a nerve growth factor was added thereto to differentiate the cells and then 0.1 volume of 4 mg/ml MTT was further added. The mixture was stored at 37° C. for 3-4 hours. After 100 μl of solubilization buffer was added to the mixture and then stored for 24 hours, O.D. values were measured by ELISA assay.
# HiB5 cell line used in this experiment was prepared by infecting primary cultured cells of temperature sensitive SV40 large T antigen in rat embryonic hippocampus (embryonic day 16) using retroviral vectors. The HiB5 cell line was divided at the permissive temperature (32° C.), but the cell division stopped at the non-permissive temperature (body temperature of rat: 39° C.). A small number of GABAegic neurons differentiated in the rat embryonic hippocampus (embryonic day 16), and glutamatergic pyramidal cell precursors still divided, some of which penetrated into dentate gyrus regions through dentate migration pathways in embryonic day 18 to differentiate into glutamatergic granule cells (Altman J., Bayer. S. A. (1990a) Prolonged sojourn of developing pyramidal cells in the intermediate zone of the hippocampus and their settling in the stratum pyramidale. J Comp Neurol. 301, 343-64.; Altman J., Das G. D. (1965) Post-natal origin of microneurones in the rat brain, Nature. 28, 953-956.). When cells stop their cell-division and start to differentiate in vivo, apoptosis occurs.
# In order to evaluate the protective effect of berberine against apoptosis and the effect of increasing cell survival, HiB5 cells were cultured under conditions for initiation of differentiation. At this time, the culture was treated with berberine at various concentrations (50 ng/ml˜6 μg/ml). The protective effect of berberine against apoptosis was measured by MTT assay. A positive control group was treated with bFGF to block apoptosis, increase cell survival and induce the differentiation into nerve cells.
# Since HiB5 neuronal stem cells undergo cell death during the differentiation, the cells were considered as a negative control group. The percentage of O.D. values is determined for the groups treated with bFGF and berberine, respectively.
# [2] = system: SH-SY5Y cells; assay: MTT assay, SH-SY5Y survival under oxidative stress (H2O2); format: cell-based, human
# Procedure: SH-SY5Y cells were treated with H2O2 for 30 minutes to induce cell injuries. 3 hours before the cells were treated with H2O2, berberine (0.25˜3.5 μg) was added to cell culture to examine its cell protection effect (see, Table 4 and FIG. 4b).
# [3] = system: HiB5 cells; assay: Induction of differentiation of HiB5 cells into nerve cells (neurite count, confocal); format: cell-based, white rat; conditions: HiB5, berberine, 2 days
# Procedure: (§1) Thereafter, the culture was treated with berberine and further cultured for 2 days. The cultured cells were immunostained with nerve cell-specific labeled molecule, and then the number of cells having neurites longer than cell bodies was counted under a confocal microscope. A positive control was treated with bFGF under the same condition as described above to induce the differentiation into nerve cells. In addition, the neuroregenerative effect was examined after berberine together with bFGF was treated. The differentiation degree was measured by double-staining neurites with nerve cell-specific labeled molecule (anti-neurofilament antibody) and FITC-labeled secondary antibody (green), followed by staining cell nuclei with propidium iodide (red).
# [4] = system: SH-SY5Y cells; assay: Neurite regeneration in SH-SY5Y cells; format: cell-based, human
# Procedure: as §1, with “(red). In order to examine the effect of berberine on neurite regeneration, SH-SY5Y cells were used as differentiated nerve cell lines. Retinoic acid inducing neurite growth was used as a positive control.” for “(red).”
# [5] = system: neuromuscular junctions of hindlimb muscles; assay: Regeneration of nerve endings at neuromuscular junctions after sciatic nerve crush; format: in vivo, white rat; conditions: 4 weeks after operation, hindlimb muscle
# From the text: In order to see whether berberine influences the regeneration of nerve endings in the neuromuscular junctions, 4 weeks after operation, hindlimb muscles connected to sciatic nerves were separated and cryosected. The neuromuscular junctions were stained using beta-tubulin isotypeIII and neurofilament, which are nerve markers.
# [6] = system: white rats; assay: Toxicity and side effects in vivo
# Procedure: The dosage for berberine can be varied depending upon known factors, such as age, sex, body weight, disease severity and health condition of the recipient. The daily dosage is commonly in the range of 100 to 150 mg/60 kg of body weight in two or three installments.
# [7] = N2, H2O2 + berberine 0.25 μg/ml
structure (smiles),measurement,setting,value
"COc1ccc2cc3[n+](cc2c1OC)CCc1cc2c(cc1-3)OCO2 [Berberine, 7,8,13,13a-tetradihydro-9,10-dimethoxy-2,3-(methylenedioxy) berbinium]",O.D. %,[1]; 50 ng,99%
same,O.D. %,[1]; 100 ng,103%
same,O.D. %,[1]; 250 ng,111%
same,O.D. %,[1]; 500 ng,140%
same,O.D. %,[1]; 700 ng,154%
same,O.D. %,[1]; 1 μg,153%
same,O.D. %,[1]; 1.5 μg,162%
same,O.D. %,[1]; 2 μg,173%
same,O.D. %,[1]; 2.5 μg,185%
same,O.D. %,[1]; 3 μg,190%
same,O.D. %,[1]; 4 μg,189%
same,O.D. %,[1]; 5 μg,191%
same,O.D. %,[1]; 6 μg,190%
same,"cell survival rate / protective effect against apoptosis, increase over control","[1]; HiB5 under differentiation conditions, MTT",about two times
same,cell survival rate,[1]; berberine 250˜500 ng/ml,somewhat increased
same,cytotoxicity,[1]; berberine up to 6 μg/ml,no cytotoxicity
same,Average (O.D. relative to H2O2 alone),[2]; [7],208%
same,O.D.,[2]; [7],0.116
same,Average (O.D. relative to H2O2 alone),"[2]; N2, H2O2 + berberine 1.5 μg/ml",287%
same,O.D.,"[2]; N2, H2O2 + berberine 1.5 μg/ml",0.16
same,Average (O.D. relative to H2O2 alone),"[2]; N2, H2O2 + berberine 3 μg/ml",344%
same,O.D.,"[2]; N2, H2O2 + berberine 3 μg/ml",0.192
same,Average (O.D. relative to H2O2 alone),"[2]; N2, H2O2 + berberine 3.5 μg/ml",228%
same,O.D.,"[2]; N2, H2O2 + berberine 3.5 μg/ml",0.127
same,"number of cells differentiated into nerve cells, increase",[3],increased two times
same,Number of differentiated cells,[3]; N2 = 3.07,7.87
same,Average (%) of differentiated cells,[3]; N2 = 14.46,31.57%
same,total average cell numbers,[3]; N2 = 22.38,26.61
same,length of neurites,[4]; berberine,lengthened the length of neurites
same,"total number of nerve cells, increase",[4]; berberine,increased two times; also recorded: doubled
same,Average (%) of differentiated cells,[4]; berberine 0.25 μg/ml,63.34%
same,Number of differentiated cells,[4]; berberine 0.25 μg/ml,26.51
same,total average cell numbers,[4]; berberine 0.25 μg/ml,39.75
same,Average (%) of differentiated cells,[4]; berberine 1.5 μg/ml,71.04%
same,Number of differentiated cells,[4]; berberine 1.5 μg/ml,27.89
same,total average cell numbers,[4]; berberine 1.5 μg/ml,38.80
same,Average (%) of differentiated cells,[4]; berberine 3 μg/ml,73.95%
same,Number of differentiated cells,[4]; berberine 3 μg/ml,28.64
same,total average cell numbers,[4]; berberine 3 μg/ml,38.60
same,regeneration of nerve endings / formation of neuromuscular junctions,[5],spread to all muscle fibers; also recorded: reached all muscle fibers to form neuromuscular junctions
same,LD50,[6]; intraperitoneally injected,24.3 mg/kg
same,acute toxicity,[6]; white rats,no acute toxicity
same,side effects on liver functions,[6]; white rats,no side effects on liver functions
